# Assay results from patent publication US12459951B2, “Compounds that interact with RAS superfamily proteins for treatment of cancers, inflammatory diseases, rasopathies, and fibrotic disease” (SHY Therapeutics, LLC, priority 2022, dated 2025).
# Experiments:
# IL6 = experiment: IL-6 Quantification Assay (ELISA), LPS-stimulated RAW 264.7; type: cell-based; parameters: inhibition: dose or concentration left out as unconfirmed; details: Mus musculus, RAW264.7; read-out: IL-6: % inh.
# KRas G12D mutant = experiment: Ras GTP Binding Domain Inhibition Assay (Ras Superfamily Assay); details: for KRas G12D mutant + SOS: % inh.: with SOS; for KRas G12D mutant: % inh.: without SOS
# In short: (§1)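 His-tagged GTPases immobilised on nickel-coated plates, pre-incubated with compound (20 μM single point, or serial dilution for IC50) 3 h at room temperature, with or without 10-30 μg/mL Sos (residues 556-1049) in the final hour. Bound Cy3- or Cy5-GTP (100 nM, 45 min) measured by fluorescence after washing.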
# Rac-1 = molecular target: T1, Rac-1 (Homo sapiens, UniProt P63000); experiment: as above; details: read-out: Rac-1: % inh.
# T1 construct: made in house
# In short: as §1
# KRas wild type = experiment: as above; details: for KRas wild type + SOS: % inh.: with SOS; for KRas wild type: % inh.: without SOS
# In short: as §1
# TNF-alpha = TNF-alpha Quantification Assay (ELISA), LPS-stimulated RAW 264.7; type: cell-based; details: Mus musculus, RAW264.7; at 10 μM; read-out: TNFα: % inh.
# Akt phosphorylation = experiment: Akt Phosphorylation Assay (western blot), Panc-1; type: cell-based, human; details: at 10 μM, * = activation
# In short: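 Phospho-Akt (Ser473) was measured by western blot in lysates of KRas G12D Panc-1 cells exposed to test compound for 6 h at 37 °C, either at 10 μM final with 0.3% DMSO or as serial dilutions for IC50. One format used overnight 0.5% FBS starvation followed by a 15 min pulse of 1.5 ng/ml EGF. The other used cells in 10% FBS with no stimulation.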
SMILES,inhibition (IL6) [%],KRas G12D mutant + SOS: % inh. (KRas G12D mutant; at 20 μM),KRas G12D mutant: % inh. (KRas G12D mutant; at 20 μM),inhibition at 20 µM (Rac-1) [%],KRas wild type + SOS: % inh. (KRas wild type; at 20 μM),KRas wild type: % inh. (KRas wild type; at 20 μM),inhibition at 10 µM (TNF-alpha) [%],% inh of Akt phosphorylation in Panc-1 (Akt phosphorylation),KRas G12D mutant + SOS: % inh. (KRas G12D mutant; 20 μM compound),KRas G12D mutant: % inh. (KRas G12D mutant; 20 μM compound),KRas wild type + SOS: % inh. (KRas wild type; 20 μM compound),KRas wild type: % inh. (KRas wild type; 20 μM compound)
"CO[C@H]1C[C@H](Nc2nc(-c3nccn3C)nn3cc(-c4ccccc4)c(-c4ccccc4)c23)C1 [Compound 203, N-((1r,3r)-3-Methoxycyclobutyl)-2-(1-methyl-1H-imidazol-2-yl)-5,6-diphenylpyrrolo[2,1-f][1,2,4]triazin-4-amine]",75 to 100,0 (0 = 0% inhibition),0 (0 = 0% inhibition),1 to 25,0 (0 = 0% inhibition),0 (0 = 0% inhibition),75 to 100,D (85-100% inhibition),–,–,–,–
"CO[C@H]1C[C@H](Nc2nc(-c3nccn3C)nn3cc(-c4ccc(CCN)cc4)c(-c4ccccc4)c23)C1.Cl [Compound 207, 6-(4-(2-Aminoethyl)phenyl)-N-((1r,3r)-3-methoxycyclobutyl)-2-(1-methyl-1H-imidazol-2-yl)-5-phenylpyrrolo[2,1-f][1,2,4]triazin-4-amine hydrochloride salt]",75 to 100,A (A = 1-25% inhibition),B (B = 26-49% inhibition),1 to 25,B (B = 26-49% inhibition),B (B = 26-49% inhibition),75 to 100,C* (46-84% activation),–,–,–,–
"CO[C@@H]1C[C@H]1Nc1nc(-c2nccn2C)nn2cc(-c3ccncc3)c(-c3ccccc3)c12 (racemic) [Compound 197, rac N-((1R,2R)-2-methoxycyclopropyl)-2-(1-methyl-1H-imidazol-2-yl)-5-phenyl-6-(pyridin-4-yl)pyrrolo[2,1-f][1,2,4]triazin-4-amine]",50 to 74,A (A = 1-25% inhibition),A (A = 1-25% inhibition),1 to 25,A (A = 1-25% inhibition),0 (0 = 0% inhibition),25 to 49,A* (1-25% activation),–,–,–,–
"COC[C@@H]1CC[C@@H]1CNc1nc(-c2ccccn2)nn2cc(-c3ccn(C(C)C)n3)c(C)c12 (racemic) [Compound 11, rac 6-(1-Isopropyl-1H-pyrazol-3-yl)-N-(((1S,2R)-2-(methoxymethyl)cyclobutyl)methyl)-5-methyl-2-(pyridin-2-yl)pyrrolo[2,1-f][1,2,4]triazin-4-amine]",0,–,–,0,–,–,0,0 (0% inhibition),0 (0 = 0% inhibition),A (A = 1-25% inhibition),0 (0 = 0% inhibition),0 (0 = 0% inhibition)
"COCCCS(=O)(=O)Nc1nc(-c2nccn2C)nn2cc(-c3ccccc3)c(-c3ccccc3)c12 [Compound 213, 3-Methoxy-N-(2-(1-methyl-1H-imidazol-2-yl)-5,6-diphenylpyrrolo[2,1-f][1,2,4]triazin-4-yl)propane-1-sulfonamide]",25 to 49,D (D = 76-100% inhibition),D (D = 76-100% inhibition),50 to 75,D (D = 76-100% inhibition),D (D = 76-100% inhibition),0,D* (85-100% activation),–,–,–,–
"COc1cccc(-c2cn3nc(-c4nccn4C)nc(N[C@H]4C[C@H](OC)C4)c3c2-c2ccccc2)c1C [Compound 209, 6-(3-methoxy-2-methylphenyl)-N-((1r,3r)-3-methoxycyclobutyl)-2-(1-methyl-1H-imidazol-2-yl)-5-phenylpyrrolo[2,1-f][1,2,4]triazin-4-amine]",75 to 100,A (A = 1-25% inhibition),A (A = 1-25% inhibition),26 to 49,0 (0 = 0% inhibition),A (A = 1-25% inhibition),75 to 100,D (85-100% inhibition),–,–,–,–
"COc1ccnc(Nc2nc(-c3nccn3CCN)nn3cc(-c4ccn(C)n4)c(C)c23)c1 [Compound 188, 2-(1-(2-Aminoethyl)-1H-imidazol-2-yl)-N-(4-methoxypyridin-2-yl)-5-methyl-6-(1-methyl-1H-pyrazol-3-yl)pyrrolo[2,1-f][1,2,4]triazin-4-amine]",50 to 74,D (D = 76-100% inhibition),D (D = 76-100% inhibition),76 to 100,D (D = 76-100% inhibition),D (D = 76-100% inhibition),0,A* (1-25% activation),–,–,–,–
"CO[C@H]1CC[C@H](Nc2nc(-c3nccn3C)nn3cc(-c4ccn(C)n4)c(C(=O)NC4CC4)c23)C1 (racemic) [Compound 182, rac N-Cyclopropyl-4-(((1S,3S)-3-methoxycyclo-pentyl)amino)-2-(1-methyl-1H-imidazol-2-yl)-6-(1-methyl-1H-pyrazol-3-yl)pyrrolo[2,1-f][1,2,4]triazine-5-carboxamide]",25 to 49,–,–,1 to 25,–,–,1 to 24,B* (26-49% activation),0 (0 = 0% inhibition),A (A = 1-25% inhibition),A (A = 1-25% inhibition),A (A = 1-25% inhibition)
"Cc1c(-c2ccn(C)n2)cn2nc(-c3nccn3C)nc(Nc3ccc(-n4ccnc4)cn3)c12 [Compound 242, N-(5-(1H-Imidazol-1-yl)pyridin-2-yl)-5-methyl-2-(1-methyl-1H-imidazol-2-yl)-6-(1-methyl-1H-pyrazol-3-yl)pyrrolo[2,1-f][1,2,4]triazin-4-amine]",25 to 49,A (A = 1-25% inhibition),B (B = 26-49% inhibition),1 to 25,0 (0 = 0% inhibition),A (A = 1-25% inhibition),0,D* (85-100% activation),–,–,–,–
"COc1cccc(Nc2nc(-c3ccccn3)nn3cc(-c4ccn(C(C)C)n4)c(C)c23)n1 [Compound 14, 6-(1-Isopropyl-1H-pyrazol-3-yl)-N-(6-methoxypyridin-2-yl)-5-methyl-2-(pyridin-2-yl)pyrrolo[2,1-f][1,2,4]triazin-4-amine]",50 to 74,–,–,0,–,–,0,0 (0% inhibition),0 (0 = 0% inhibition),A (A = 1-25% inhibition),A (A = 1-25% inhibition),0 (0 = 0% inhibition)
"COCCNC(=O)c1c(-c2ccn(C)n2)cn2nc(-c3nccn3C)nc(N[C@H]3CC[C@H](OC)C3)c12 (racemic) [Compound 183, rac 4-(((1S,3S)-3-Methoxycyclo-pentyl)amino)-N-(2-methoxyethyl)-2-(1-methyl-1H-imidazol-2-yl)-6-(1-methyl-1H-pyrazol-3-yl)pyrrolo[2,1-f][1,2,4]triazine-5-carboxamide]",25 to 49,–,–,1 to 25,–,–,25 to 49,A (1-25% inhibition),A (A = 1-25% inhibition),A (A = 1-25% inhibition),A (A = 1-25% inhibition),0 (0 = 0% inhibition)
